Experimental data as given in PubChem BioAssay (NCI).
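1) Cells in 96-well plates. 2) Compound, 48 h, 5 concentrations. 3) Linear interpolation between surrounding doses. 4) Unreached endpoint = highest concentration. GI50: concentration for 50% inhibition of growth. TGI is the concentration that stops growth completely.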

What was measured:
Test in all cases: NCI-60 cell line screen, 48 h
[1] = system: IGROV1 ovarian
[2] = system: OVCAR-4 ovarian
[3] = system: RPMI-8226 leukemia
[4] = system: SF-268 CNS
[5] = system: HL-60(TB) leukemia
[6] = system: EKVX NSCLC
[7] = system: DU-145 prostate
[8] = system: SK-MEL-5 melanoma
[9] = system: SW-620 colon
[10] = system: M14 melanoma

| SMILES | TGI [1] [nM] | TGI [2] [nM] | TGI [3] [nM] | TGI [4] [nM] | TGI [5] [nM] | TGI [6] [nM] | TGI [7] [nM] | TGI [8] [nM] | TGI [9] [nM] | TGI [10] [nM] | GI50 [1] [nM] | GI50 [2] [nM] | GI50 [3] [nM] | GI50 [4] [nM] | GI50 [5] [nM] | GI50 [6] [nM] | GI50 [7] [nM] | GI50 [8] [nM] | GI50 [9] [nM] | GI50 [10] [nM] |
| --- | --- | --- | --- | --- | --- | --- | --- | --- | --- | --- | --- | --- | --- | --- | --- | --- | --- | --- | --- | --- |
| Nc1nc2c(ncn2C2CCC(CO)O2)c(=O)n1C(=O)c1ccccc1 (centres undefined) | > 100000 | > 100000 | > 100000 | > 100000 | > 100000 | > 100000 | > 100000 | > 100000 | > 100000 | > 100000 | – | – | – | – | – | – | – | – | – | – |
| Nc1ccccc1NC(=O)c1ccc(CNc2nccc(-c3cccnc3)n2)cc1 | > 27700 | > 28300 | 14600 | > 21400 | 2430 | > 59100 | > 100000 | 1150 | > 100000 | 4180 | 2360 | 1430 | 500 | 995 | 424 | 1360 | 1450 | 381 | 518 | 1030 |
| Cc1cc(Cl)cc2c(N=Nc3ccc(S(N)(=O)=O)cc3)c(O)[nH]c12 | > 25000 | > 25000 | > 25000 | > 25000 | > 25000 | > 25000 | > 25000 | > 25000 | > 25000 | > 25000 | > 25000 | > 25000 | > 25000 | > 25000 | > 25000 | > 25000 | > 25000 | > 25000 | > 25000 | > 25000 |
| CC1(C)N=C(N)N=C(N)N1c1ccc(CCCCc2ccccc2)c(Cl)c1 | 2340 | 9660 | 11600 | 13700 | 3260 | 25100 | 14000 | 1320 | 5970 | 8770 | < 18.5 | 75.5 | 127 | 53.6 | – | 294 | 57.7 | 62.8 | < 10 | 59.8 |
| CSc1ccc(-c2ccccc(=O)c2O)cc1 | > 100000 | 67300 | 26900 | > 100000 | 1550 | 3960 | > 100000 | 5050 | > 100000 | 2680 | 427 | 271 | 428 | 625 | 283 | 280 | 849 | 413 | 386 | 347 |
